US9073963B2 (Universite De Montreal, priority 2003, dated 2015)
Structures can show the parent of a compound that is named as a salt. Where two headings read alike, the source gives them in different places. Values belong to the compound of their own block, whether it stands above or below them. Where a SMILES comes first, the peptide text is derived from it. [ ]: non-standard residue; d: D form. dCit = NC(=O)NCCC[C@@H](N)C(=O)O

Assays:
[1] = tested on: acetylcholine (uncharacterized subtypes); experiment: Porcine microvascular contraction to acetylcholine (selectivity); conditions: agonist Acetylcholine 10^−6M; 0.1 mM THG113
Method: (§1) The preparations were allowed to stabilize for 30 min.

human FP receptor [2] = target: T1, human FP receptor (Homo sapiens, UniProt P43088); experiment: Phosphoinositide hydrolysis in FP/293 cells; assay type: cell-based; conditions: in the presence of 100 nM PGF2α, 30 min
T1 construct: expressed in transfected cells; host or cells: HEK293 (FP/293)
Description: The phosphoinositides were collected by anion exchange chromatography with 1 M ammonium formate/0.1 N formic acid.

CD-1 mice = experiment: Endotoxin (E. coli LPS) model of mouse preterm labor
Method: Timed-pregnant CD-1 mice (mean gestation was 19.2 days) were purchased and at day 17, alzet pumps containing THG113 in saline were surgically implanted on the back of the animals. These pumps continuously deliver the inhibitor at 1 mg/day. E. coli lipopolysaccharide (LPS) (50 μg i. p. twice at 3 h interval) was injected on day 15.
E. coli LPS (50 μg twice three hours apart, i.p) was administered to CD-1 mice (average weight: 50 g) at gestation day 15. Four hours after LPS was administered, alzet osmotic pumps that delivered 0.1, 0.4 or 0.8 mg/Kg/day of the drug were surgically implanted on the backs of the animals. Normal gestation in this strain is 19.2 days.
E. coli LPS (50 μg twice three hours apart, i.p) was administered to CD-1 mice at gestation day 15. Alzet osmotic pumps that delivered 0.1 mg/Kg/day of the drug were surgically implanted on the backs of the animals. Normal gestation in this strain is 19.2 days.

FP receptor [3] = target: T2, FP receptor (Sus scrofa, UniProt C6GAG8); experiment: Porcine retinal (ocular) microvascular contraction to PGF2α, eyecup assay; conditions: for % Inhibition: 100 nM PGF2α, compound at 100 μM
T2 construct: the porcine eyecup model, an ex vivo assay of vascular constriction in porcine retinas; from tissue; host or cells: retinal microvessels in eyecups of newborn pigs pre-treated with ibuprofen
Method: as §1
Percent (%) inhibition denotes porcine ocular microvessel contraction in response to 100 nM PGF2α in the presence of 0.1 mM peptide relative to that in the absence of the peptide, expressed as percentage.

[4] = tested on: uterine strips obtained from recently-delivered mice; experiment: Contractility of mouse uterine (myometrial) strips after delivery, organ bath
Method: Myometrial strips (1 cm) were dissected from pregnant mice immediately after delivery (when the uterus is still non-quiescent) and suspended in organ baths containing 10 ml of KREB's buffer bubbled with 90% oxygen. Contractile responses were recorded using pressure transducers connected to a Gould polygraph.

human FP receptor [5] = target: T1, human FP receptor; experiment: Specific binding of [125I]-THG113 to FP/293 cells versus parent HEK293 cells; conditions: 10^5 cells, 10^6 cpm, 1 h
Method: [^125I]-THG113 was produced by labeling tyrosine residue with [^125I] using the lactoperoxidase method (Thorell et al. 1971 Biochim. Biophys. Acta 28, 251(3):363-369). HEK293 cells ectopically expressing cloned human FP receptor, FP/293, (10^5) were incubated with [^125I]-THG113 (10^6 cpm) for 1 h; bound and unbound ligands were separated by filtration on glass fibre filters. The radioactivity on the filters was counted by scintillation spectrophotometry. For a detailed method of ligand binding and displacement, see Li at al. (1996). […] Using cloned FP/293 cells in binding assays (see Li et al. for a method of ligand displacement assay), the specific binding of THG113 to FP protein was investigated.

SR Ca^2+ ATPase = experiment: Porcine microvascular contraction to BHQ (intracellular Ca2+ dynamics control); conditions: BHQ 10^−6M; 0.1 mM THG113
Method: as §1

Urotensin = experiment: Porcine microvascular contraction to urotensin (selectivity); conditions: agonist Urotensin 10^−6M; 0.1 mM THG113
Method: as §1

C-PAF = conditions: 0.1 mM THG113
Method: To prepare eyecups, a circular incision was made 3-4 mm posterior to ora serrata to remove the […] and vitreous body with minimal handling of the retina. The remaining eyecup was fixed with pins to a wax base in a 20 ml tissue bath containing 20 ml of Kreb's buffer (pH 7.35-7.45) and equilibrated with 21% oxygen and 5% carbon dioxide at 37° C. The preparations were allowed to stabilize for 30 min.
The outer vessel diameter was recorded with a video camera mounted on a dissecting microscope (Zeiss M 400) and the responses were quantified by a digital image analyzer (Sigma Scan Software, Jandel Scientific, Corte Madera, Calif.). Vascular diameter was recorded before and 5 min following the topical application of the agonist.

human FP receptor [6] = target: T1, human FP receptor; experiment: Displacement of bound [3H]PGF2α in FP/293 whole cell assay; assay type: binding; conditions: FP/293 cells
Description: […] Biophys. Acta 28, 251(3):363-369). […] The radioactivity on the filters was counted by scintillation spectrophotometry. For a detailed method of ligand binding and displacement, see Li at al. (1996). […] Using cloned FP/293 cells in binding assays (see Li et al. for a method of ligand displacement assay), the specific binding of THG113 to FP protein was investigated.

FP receptor [7] = conditions: cited from earlier work
FP receptor [8] = target: T2, FP receptor; experiment: Porcine retinal (ocular) microvascular contraction to PGF2α, eyecup assay
myometrial strips [9] = experiment: Contractility of bovine myometrial strips
myometrial strips [10] = experiment: Contractility of ovine myometrial strips
[11] = tested on: TP, EP1, angiotensin AT1, endothelin receptor, alpha adrenergic receptors; experiment: Specificity in porcine ocular microvessel contractility assays, agonists of other GPCRs; conditions: 1 μM peptide

T2 sequence (C6GAG8 1-362): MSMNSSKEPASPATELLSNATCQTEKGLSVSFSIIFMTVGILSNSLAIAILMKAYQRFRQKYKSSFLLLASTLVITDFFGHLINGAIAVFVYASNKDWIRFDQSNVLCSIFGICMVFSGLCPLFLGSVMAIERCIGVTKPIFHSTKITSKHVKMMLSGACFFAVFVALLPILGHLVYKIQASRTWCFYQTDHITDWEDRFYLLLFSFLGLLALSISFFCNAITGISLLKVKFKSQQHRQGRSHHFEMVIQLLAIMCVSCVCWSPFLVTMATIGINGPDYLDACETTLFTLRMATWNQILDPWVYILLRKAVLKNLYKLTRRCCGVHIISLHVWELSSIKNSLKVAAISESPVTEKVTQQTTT
T1 sequence (P43088 whole entry): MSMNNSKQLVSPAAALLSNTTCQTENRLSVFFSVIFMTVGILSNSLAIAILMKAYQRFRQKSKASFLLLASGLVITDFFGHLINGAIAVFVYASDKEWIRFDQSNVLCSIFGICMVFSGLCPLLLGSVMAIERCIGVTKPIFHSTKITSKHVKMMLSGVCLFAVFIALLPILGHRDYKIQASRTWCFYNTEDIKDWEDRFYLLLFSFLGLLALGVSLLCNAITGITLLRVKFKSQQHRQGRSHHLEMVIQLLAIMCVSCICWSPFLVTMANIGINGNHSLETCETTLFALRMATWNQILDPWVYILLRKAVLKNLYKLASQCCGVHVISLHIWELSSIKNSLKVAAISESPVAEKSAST

Structure (SMILES): CC[C@@H](C)[C@@H](N)C(=O)N[C@H](CC(C)C)C(=O)NCC(=O)N[C@H](Cc1c[nH]cn1)C(=O)N[C@H](CCCNC(=N)N)C(=O)N[C@H](CC(=O)O)C(=O)N[C@H](Cc1ccc(O)cc1)C(=O)N[C@H](CCCCN)C(=O)O [Compound 1] (H-[dI][dL]G[dH][dR][dD][dY][dK]-OH; N-terminus and C-terminus assumed)
% Inhibition [1]: <1% | inhibition of PGF2α-stimulated phosphoinositide hydrolysis (human FP receptor [2]): dose-dependently inhibited | animals with labor delayed past 15 h after LPS (CD-1 mice; alzet pump 1 mg/day): 60% | mean time of delivery (CD-1 mice; alzet pump 1 mg/day, after LPS): 36 h | contractile response to supra-physiological levels of PGF2α (FP receptor [3]; 100 μM THG113): failed to produce contractile response | selectivity of inhibition among GPCR agonists (FP receptor [3]; 0.1 mM THG113, 0.1 μM concentration of the agonists): selective for FP receptor only | time until spontaneous and PGF2α (1 μM)-induced contractile responses were diminished ([4]; after addition of 100 μM THG113): ≤ 20 min | specific binding of [125I]-THG113 to FP/293 cells relative to parent HEK293 cells (human FP receptor [5]): 27 fold | % Inhibition (SR Ca^2+ ATPase): <1% | % Inhibition (Urotensin): <1% | % Inhibition (C-PAF; agonist C-PAF 10^−6M): <1% | % Inhibition (C-PAF; agonist C-PAF 10^−7M): <1% | displacement of [3H]PGF2α binding (human FP receptor [6]): little displacement

Structure (SMILES): O=C(O)CCC/C=C\C[C@@H]1[C@@H](/C=C/[C@H](O)C2Cc3ccccc3C2)[C@@H](F)C[C@@H]1O [AL8810]
activity at FP receptor (FP receptor [7]): weak partial agonist

Structure (SMILES): O=C(CCc1ccc(O)cc1)c1c(O)cc(O)cc1O [Phloretin]
IC50 (FP receptor [7]; antagonist of FP receptor): 20000 nM

Structure (SMILES): CC[C@@H](C)[C@@H](N)C(=O)N[C@H](CC(C)C)C(=O)NCC(=O)N[C@H](Cc1c[nH]cn1)C(=O)N[C@H](CCCNC(N)=O)C(=O)N[C@H](CC(=O)O)C(=O)N[C@H](Cc1ccc(O)cc1)C(=O)N[C@H](CCCCN)C(=O)O [Compound 32] (H-[dI][dL]G[dH][dCit][dD][dY][dK]-OH; N-terminus and C-terminus assumed)
animals delivered within 15 h after LPS administration (CD-1 mice; 0.1 mg (osmotic pump)): less than 30% | animals delivered at 48 h after LPS administration (CD-1 mice; 0.4 mg dose): 50-60% | animals delivered within 15 h after LPS administration (CD-1 mice; 0.8 mg (osmotic pump)): < 15% | animals delivered at 48 h after LPS administration (CD-1 mice; 0.8 mg dose): 50-60% | delay in delivery (CD-1 mice; 0.1, 0.4 or 0.8 mg/Kg/day): dose-dependent delay in delivery | uterine contractile responses (contraction duration and mean force of contraction) ([4]; induced by 1 μM PGF2α): dose-dependent reduction | selectivity for FP receptor (FP receptor [8]; 1 μM peptide): selective inhibitor of FP receptor | reduction of uterine contractile responses (myometrial strips [9]): Reductions of similar magnitude | reduction of uterine contractile responses (myometrial strips [10]): Reductions of similar magnitude | vasomotor responses produced by agonists of other GPCRs, including TP and EP1 [11]: did not affect the vasomotor responses

Structure (SMILES): N=C(N)NCCC[C@H](NC(=O)[C@@H]1CC[C@@H]2CC[C@H](NC(=O)Cc3ccccc3)C(=O)N21)C(=O)N[C@H](CCc1ccccc1)CC(=O)O.O=C(O)C(F)(F)F [Compound 49, (3S,6S,9S)-2-oxo-3-phenylacetamido-1-azabicyclo[4.3.0]nonane-9-carboxyl-L-argininyl-(3′R)-3′-amino-5′-phenylpentanoic acid trifluoroacetate]
% Inhibition (FP receptor [3]): 59.5%

Structure (SMILES): N=C(N)NCCC[C@H](NC(=O)[C@@H]1CC[C@@H]2CC[C@H](NC(=O)Cc3ccccc3)C(=O)N21)C(=O)N[C@H](CC(=O)O)Cc1ccccc1 [Compound 47, (3S,6S,9S)-2-oxo-3-phenylacetamido-1-azabicyclo[4.3.0]nonane-9-carboxyl-L-argininyl-(3′S)-3′-amino-4′-phenylbutanoic acid trifluoroacetate]
animals delivered within the first 15 h after endotoxin administration (CD-1 mice; 0.1 mg/Kg/day osmotic pump): Less than 25% | IC50 (FP receptor [3]): 1.6 nM

Structure (SMILES): N=C(N)NCCC[C@H](NC(=O)[C@@H]1C[C@H](Cc2ccccc2)[C@@H]2CC[C@H](NC(=O)C3CCCCC3)C(=O)N12)C(=O)N[C@@H](CC(=O)O)C(=O)NCCC(c1ccccc1)c1ccccc1.O=C(O)C(F)(F)F [Compound 34, (3S,6S,7S,9S)-2-oxo-3-cyclohexanecarboxamido-7-benzyl-1-azabicyclo[4.3.0]nonane-9-carboxyl-L-argininyl-L-aspartyl-3′,3′-diphenylpropylamide trifluoroacetate]
% Inhibition (FP receptor [8]; 100 nM PGF2α, compound at 50 μM): 63.2%

IC50 (FP receptor [3]): 3.5 nM
Structure (SMILES): N=C(N)NCCC[C@H](NC(=O)[C@@H]1CC[C@@H]2CC[C@H](NC(=O)Cc3ccccc3)C(=O)N21)C(=O)N[C@@H](CCc1ccccc1)CC(=O)O [Compound 48, (3S,6S,9S)-2-oxo-3-phenylacetamido-1-azabicyclo[4.3.0]nonane-9-carboxyl-L-argininyl-(3′S)-3′-amino-5′-phenylpentanoic acid trifluoroacetate]

Structure (SMILES): N=C(N)NCCC[C@H](NC(=O)[C@@H]1CC[C@@H]2CC[C@H](NC(=O)Cc3ccccc3)C(=O)N21)C(=O)N[C@@H](Cc1ccccc1)C(=O)O.O=C(O)C(F)(F)F [Compound 46, (3S,6S,9S)-2-oxo-3-phenylacetamido-1-azabicyclo[4.3.0]nonane-9-carboxyl-L-argininyl-L-phenylalanine trifluoroacetate]
% Inhibition (FP receptor [3]): 51.1%

Structure (SMILES): CCCCC[C@H](O)/C=C/[C@@H]1[C@@H](C/C=C\CCCC(=O)O)[C@@H](O)C[C@H]1O [PGF2α, prostaglandin F2α, reference compound]
displacement of [3H]PGF2α binding (human FP receptor [6]): completely displaced
